Measured values reported in publication PMC5696599, “Confirming a Role for α9nAChRs and SK Potassium Channels in Type II Hair Cells of the Turtle Posterior Crista” (Frontiers in Cellular Neuroscience, 2017).

Biological target: T1, α9*nAChR (alpha9-containing nicotinic ACh receptor) (Trachemys scripta, UniProt Q3L0X1)
T1 construct: gene CHRNA9; native receptor in type II hair cells, intact split-epithelial posterior crista; read-out through coupled SK potassium current
Assay: whole-cell patch clamp of type II hair cells, peak ACh-sensitive outward current, Hill fit
Assay type: cell-based
Details: agonist; coupled SK current read-out at −17 mV; intact epithelium with acetylcholinesterase and diffusion barriers; pH 7.6; 21–25°C

T1 sequence (Q3L0X1 28-490): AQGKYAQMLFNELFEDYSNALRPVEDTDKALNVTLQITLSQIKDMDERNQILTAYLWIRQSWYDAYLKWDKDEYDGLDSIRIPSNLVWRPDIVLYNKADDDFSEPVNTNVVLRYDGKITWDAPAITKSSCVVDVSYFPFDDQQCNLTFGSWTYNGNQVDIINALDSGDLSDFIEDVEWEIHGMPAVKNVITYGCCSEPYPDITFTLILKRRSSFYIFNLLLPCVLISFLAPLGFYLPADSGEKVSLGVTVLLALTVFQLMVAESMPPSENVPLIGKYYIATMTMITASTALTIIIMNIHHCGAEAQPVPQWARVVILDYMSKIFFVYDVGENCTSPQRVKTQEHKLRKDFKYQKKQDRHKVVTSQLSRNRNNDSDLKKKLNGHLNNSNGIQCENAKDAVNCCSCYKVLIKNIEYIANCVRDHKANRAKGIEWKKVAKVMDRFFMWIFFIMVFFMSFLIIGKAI
T1 sequence (UPI001552A461 25-505 partner): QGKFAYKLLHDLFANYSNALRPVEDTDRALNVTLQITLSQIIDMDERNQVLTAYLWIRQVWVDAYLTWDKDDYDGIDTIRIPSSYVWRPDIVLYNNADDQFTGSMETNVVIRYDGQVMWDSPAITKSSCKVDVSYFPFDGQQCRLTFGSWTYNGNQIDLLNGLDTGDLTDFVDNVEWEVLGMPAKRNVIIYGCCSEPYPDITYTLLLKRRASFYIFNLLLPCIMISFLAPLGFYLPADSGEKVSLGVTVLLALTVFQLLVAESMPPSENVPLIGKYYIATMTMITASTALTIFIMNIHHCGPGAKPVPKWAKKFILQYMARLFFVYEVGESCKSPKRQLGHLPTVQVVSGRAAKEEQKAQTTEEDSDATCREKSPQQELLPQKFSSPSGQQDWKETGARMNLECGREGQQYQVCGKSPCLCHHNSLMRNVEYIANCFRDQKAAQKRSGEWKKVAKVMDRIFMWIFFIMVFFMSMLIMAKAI

CC(=O)OCC[N+](C)(C)C [acetylcholine]
EC50: 76 µM
